What all share (format): in vivo
Assay [1] deals with Western flower thrips, Frankliniella occidentalis (Pergande). In words: Western flower thrips bioassay on treated first true cotton leaves (Example 5). The conditions noted are these: alone. As to the method: Ten second instar larvae of the Western flower thrips, Frankliniella occidentalis (Pergande), were infested onto each leaf disc. […] The “Colby's Expected Action” was calculated using Colby's equation as discussed previously.

Assay [2] relates to Western plant bug, Lygus hesperus. In words: Western plant bug bean-piece dip bioassay (Examples 10 and 11). As for the experimental part:
Bean pieces (about one inch-long) were used for the tests. Four bean pieces were placed in each tested active solution and left there for 10 minutes. Bean pieces were taken out of the active solution, and each piece was placed in a well in a 32-well tray and allowed to air dry. Three third-instar nymphs of Western plant bug, Lygus hesperus, were infested into each well.

For assay [3], the system named is brown stink bug, Euschistus heros. In words: Brown stink bug diet-treatment bioassay (Example 6). The conditions noted are these: alone.
The subject of assay [4] is diamondback moth, Plutella xylostella. Nature of the assay: Diamondback moth bioassay on track-sprayed cabbage (Example 7). The note with it: alone, dose rate 0.000078 weight %. From the text: Three second-instar diamondback moth, Plutella xylostella, were infested onto each leaf disc.
The test system of assay [5] is brown stink bug, Euschistus heros. In words: Brown stink bug bean-piece dip bioassay (Example 8). The note with it: alone. As for the experimental part: The active compounds were formulated in a 10% acetone solution with 0.025% non-ionic surfactant, TWEEN® 20. Bean pieces (about one inch-long) were used for the tests. Four bean pieces were placed in each tested active solution and left there for 10 minutes. Bean pieces were taken out of the active solution, and each piece was placed in a well in a 32-well tray and allowed to air dry. Three third-instar nymphs of brown stink bug, Euschistus heros, were infested into each well.
The active compounds formulated in a 10% acetone solution with 0.025% non-ionic surfactant, TWEEN® 20 were tested against brown stink bugs, Euschistus heros, according to the procedure described in example 8A.

For assay [6], the system named is Western flower thrips, Frankliniella occidentalis. Nature of the assay: Western flower thrips cotton leaf punch dip bioassay (Example 9). The conditions noted are these: alone. As to the method:
The active compounds were formulated in a 10% acetone solution with 0.025% non-ionic surfactant, TWEEN® 20. Cotton leaf punches were used for bioassays. Two cotton leaf punches were placed in each solution and left there for 10 minutes. Leaves were taken out of the solution, placed on a piece of filter paper in separated Petri dishes, and air dried. Each leaf disc was considered a repetition. Five nymph of Western flower thrips, Frankliniella occidentalis, were infested per repetition.

Take `C/C(=N\C#N)N(C)Cc1ccc(Cl)nc1` [Acetamiprid, (1E)-N-[(6-chloro-3-pyridyl)methyl]-N′-cyano-N-methyl acetamidine]: the “% Control Three Days After Treatment” value in assay [1] (dose rate 0.002 weight %) is listed as 30%; in assay [1] (dose rate 0.02 weight %), 60%; in assay [2] (acetamiprid alone, dose rate 0.005 weight %) it was 0%; in assay [2] (acetamiprid alone, dose rate 0.02 weight %), 33%; in assay [4], 4.17%. Also, the “% Control Six Days After Treatment” value in assay [3] (dose rate 0.000039 weight %) was found to be 0%; in assay [3] (dose rate 0.000078 weight %), 0%; in assay [3] (dose rate 0.000156 weight %), 9%.

As for `CN=C(NCC1CCOC1)N[N+](=O)[O-]` (centres unmarked) [Dinotefuran, 2-methyl-1-nitro-3-[(tetrahydro-3-furanyl)methyl]guanidine], the “% Control Four Days After Treatment” value in assay [5] (dose rate 0.0025 weight %) was 50%; in assay [5] (dose rate 0.01 weight %), 75%. Also, the “% Control Three Days After Treatment” value in assay [2] (dinotefuran alone, dose rate 0.000078 weight %) is reported as 0%; in assay [2] (dinotefuran alone, dose rate 0.00125 weight %), 8%; in assay [2] (dinotefuran alone, dose rate 0.005 weight %) it was 17%; in assay [2] (dinotefuran alone, dose rate 0.02 weight %), 92%; in assay [6] (dose rate 0.00002 weight %) it was 0%; in assay [6] (dose rate 0.000078 weight %) it was 0%. The “% Control Three Days After Treatment” value amounted to 0% in assay [6] (dose rate 0.0003125 weight %), 0% in assay [6] (dose rate 0.00125 weight %), 10% in assay [6] (dose rate 0.005 weight %) and 0% in assay [6] (dose rate 0.02 weight %).

Values taken from patent US9801376B2, “Synergistic pesticidal compositions and related methods” (Dow AgroSciences LLC, priority 2013, dated 2017).
